Results: patent US20110171172A1, “COMPOUNDS FOR INHIBITING KSP KINESIN ACTIVITY” (priority 2007, published 2011)

Test system: HCT116 colon cancer cells
Experiment: KSP cellular assay (phospho-histone H3 / MPM2 immunofluorescence)
Format: cell-based
Details: Homo sapiens, HCT-116, 16 hours with drug, percent of cells staining positive for Phos-Histone H3 (ser10) / Phos-MPM2
Protocol: HCT116 colon cancer cells were grown in DMEM:F12 media with 10% heat inactivated FBS at 37 degrees with 5% CO2. Cells were plated at 7,500 cells per well in PDL coated 384-well tissue culture plates. 6 hours later media was removed and new media containing drug was added. Cells were incubated with drug for 16 hours. All further steps were performed at room temperature in the dark. Cells were fixed with 25 ul/well Prefer fixation solution plus 250 nM Hoechst dye and incubated for 30 minutes. The fixation solution was removed and cells were washed with PBS. Cells were then permeabilized with 25 uliwell 0.2% Triton-X in PBS and incubated for 10 minutes. Cells were washed with PBS and then incubated with 25 ul/well PBS containing 3% FBS for 30 minutes. Cells were then stained overnight at 4 degrees with 25 uliwell antibody solution in PBS plus 3% FBS. Antibodies used were Phos-Histone H3 (ser10)-Alexa Flur 488 Conjugate and Phos-MPM2 Texas Red Conjugate. Cells were washed with PBS and then immunofluorescence images captured with HT Pathway microscope. The percent of cells staining positive was calculated and EC50 values for the compounds of the invention that were tested were determined using Excel XLfit.
EC50 Determinations: Dose-response curves were plotted from inhibition data generated each in duplicate, from 8 point serial dilutions of inhibitory compounds. Concentration of compound was plotted against enzyme activity (OD reading). To generate EC50 values, the dose-response curves were then fitted to a standard sigmoidal curve and EC50 values were derived by nonlinear regression analysis.

EC50, > 1 µM:
CC(=O)N1N=C(c2cc(F)ccc2F)OC12CCOc1ccccc12 (centres unmarked) [compound 105]
CC(=O)N1N=C(c2cc(F)ccc2F)OC12CCCc1ccccc12 (centres unmarked) [compound 103]
CC(=O)N1N=C(c2cc(F)ccc2F)OC12CCSc1ccccc12 (centres unmarked) [compound 102]
CC(=O)N1N=C(c2cc(F)ccc2F)OC12COc1ccccc12 (centres unmarked) [compound 104]
CC(=O)N1N=C(c2cc(F)ccc2F)OC12CCCc1sccc12 (centres unmarked) [compound 101]
